Target: T1, KSR (Mus musculus, UniProt Q61097)
T1 sequence (Q61097 1-873): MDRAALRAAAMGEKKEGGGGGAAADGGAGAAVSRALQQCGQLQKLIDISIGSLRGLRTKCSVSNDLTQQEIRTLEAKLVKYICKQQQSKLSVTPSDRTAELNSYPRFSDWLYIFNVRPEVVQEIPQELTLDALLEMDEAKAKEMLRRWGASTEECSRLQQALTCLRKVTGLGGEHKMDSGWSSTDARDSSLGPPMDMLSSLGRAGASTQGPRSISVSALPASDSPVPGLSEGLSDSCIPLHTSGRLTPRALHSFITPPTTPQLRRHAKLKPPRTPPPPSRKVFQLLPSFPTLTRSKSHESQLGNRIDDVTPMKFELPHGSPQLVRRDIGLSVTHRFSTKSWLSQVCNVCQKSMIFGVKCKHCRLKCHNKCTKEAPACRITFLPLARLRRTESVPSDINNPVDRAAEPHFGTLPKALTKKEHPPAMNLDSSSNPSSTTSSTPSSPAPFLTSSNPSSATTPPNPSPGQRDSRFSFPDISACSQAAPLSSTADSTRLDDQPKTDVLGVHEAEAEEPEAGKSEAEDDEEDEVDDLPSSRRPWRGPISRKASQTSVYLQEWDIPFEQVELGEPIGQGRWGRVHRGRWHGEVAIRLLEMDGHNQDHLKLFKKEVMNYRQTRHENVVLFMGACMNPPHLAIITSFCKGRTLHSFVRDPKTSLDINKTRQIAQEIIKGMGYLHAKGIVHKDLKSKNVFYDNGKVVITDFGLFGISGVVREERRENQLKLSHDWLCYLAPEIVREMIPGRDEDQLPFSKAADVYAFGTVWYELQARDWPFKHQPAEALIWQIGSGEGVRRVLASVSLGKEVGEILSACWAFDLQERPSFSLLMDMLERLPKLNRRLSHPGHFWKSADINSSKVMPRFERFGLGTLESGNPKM
Assay: KSR autophosphorylation after treatment of COS-7 cells expressing KSR
Assay type: cell-based, mouse (KSR expressed in COS-7 cells)
Conditions: TNFα 10 nM
Protocol: FIG. 23A--COS-7 cells were transfected as in FIG. 22A and placed in serum-free medium. After 4 hours, cells were stimulated for 10 min with the ceramide analog, C2-ceramide (Biomol), at the concentrations indicated. Cells were lysed with NP-40 lysis buffer, and Flag-tagged KSR (0.8 mg protein for each point) was immunoprecipitated and assayed for autophosphorylation activity as described in Experimental Procedures. The autoradiogram was exposed for 1 hour. KSR is expressed at similar levels in each sample as monitored by Western blot (data not shown). Data represent one of three similar experiments.
COS-7 cells expressing Flag-tagged KSR were stimulated with 10 nM TNFα for the times indicated and lysed with NP-40 buffer as in FIG. 2A. […] The autoradiogram was exposed for 1 hour. Data represent one of three similar experiments.
KSR was immunoprecipitated as above from 0.8 mg NP-40 lysate protein with 40 μl agarose-conjugated anti-Flag antibody at 4° C. for 4 hrs or overnight. […] The reaction was stopped by addition of Laemmli sample buffer. Samples were resolved by 7.5% sodium dodecyl sulfate-polyacrylamide gel electrophoresis (SDS-PAGE) and autoradiographed.

In the case of TNF-α, the KSR autophosphorylating activity is reported as “time-dependent enhancement” and the “time to maximal effect” value (autophosphorylation, Raf-1 phosphorylation and activation) is reported as no more than 20 min.

Reference: patent publication US6040149A, “Assay for identifying agents which act on the ceramide-activated protein kinase, kinase suppressor of ras, and methods of using said agents” (priority 1997, dated 2000)
